Patent US12729181B2, “Compounds, compositions, and methods for modulating calcium ion homeostasis” (The Regents of the University of California, priority 2020, dated 2026)

Tests used:
VDAC2 = experiment: Binding of efsevin to VDAC2
[1] = Metabolic stability in vivo
cardiomyocytes = experiment: Ca sparks, Ca waves and contractions in cardiomyocytes; type: cell-based
tre^tc318 mutant embryos = experiment: Compound rescue screen: restoration of persistent heartbeat in tremblor embryos; type: in vivo, Zebrafish; conditions: for responders at 10 µM / responders at 15 µM / responders at 20 µM: Danio rerio, 48 h; for responders at 10 µM: read-out: Rescue at 10 uM (%); for responders at 15 µM: read-out: Rescue at 15 uM (%); for responders at 20 µM: read-out: Rescue at 20 uM (%); for Rescue at 10 uM (%): 10 uM from 30 hpf; for Rescue at 10 uM (%) / Rescue at 15 uM (%) / Rescue at 20 uM (%): cardiac function by visual inspection at 2 dpf, 10 embryos per well; for Rescue at 15 uM (%): 15 uM from 30 hpf; for Rescue at 20 uM (%): 20 uM from 30 hpf
Method: Zebrafish of the mutant line tremblor (tre^tc318) were maintained and bred as described previously in the literature. C. f. Langenbacher A D, et al., PNAS, 2005, 102(49), 17699-17704.
Exemplary compounds were screened for their ability to partially or completely restore persistent heartbeat in tre^tc318 embryos. 10 tre^tc318 mutant embryos were placed in each well of a 24-well plate and raised in the presence of individual compounds at various concentrations (5, 10, 15 and 20 μM) from 30 hpf. Cardiac function was analyzed by visual inspection at 2 dpf. The hearts of tre^tc318 embryos manifest a chaotic movement resembling cardiac fibrillation with sporadic contractions. Compounds that elicited persistent coordinated cardiac contractions were validated by rescreening at least once on another 10 tre^tc318 mutant embryos.

SMILES	responders at 10 µM (tre^tc318 mutant embryos) [%]	responders at 15 µM (tre^tc318 mutant embryos) [%]	other results
CCOC(=O)C1=CCN(S(=O)(=O)c2ccc(C)cc2)C1c1ccccc1 (stereo not drawn) [FS001, efsevin, reference compound]	58	80	binding to VDAC2 (VDAC2): bind to VDAC2; metabolic stability in vivo [1]: poor metabolic stability in vivo; effect on Ca overload-induced Ca waves and contractions (cardiomyocytes): inhibits Ca+overload-induced erratic Ca^+ waves and irregular contractions; responders at 20 µM (tre^tc318 mutant embryos): 45%; activity to restore coordinated contractions in tremblor (tre^tc318 mutant embryos; chemical suppressor screen on zebrafish tremblor embryos): potent activity to restore coordinated contractions in tremblor
CCOC(=O)C1=CCN(S(=O)(=O)c2ccc(Cl)cc2)C1c1cccc(F)c1 (stereo not drawn) [FS090]	40		
CCOC(=O)C1=CCN(S(=O)(=O)c2ccc(C)cc2)C1c1cccc(Br)c1 (stereo not drawn) [FS067]			Rescue at 10 uM (%) (tre^tc318 mutant embryos): 20%
CCOC(=O)C1=CCN(S(=O)(=O)c2ccccc2F)C1c1cccc(C)c1 (stereo not drawn) [FS038]	25		
CCOC(=O)C1=CCN(S(=O)(=O)c2ccc([N+](=O)[O-])cc2)C1c1ccc(C)cc1 (stereo not drawn) [FS141]		0	
CCOC(=O)C1=CCN(S(=O)(=O)c2ccc(C)cc2)C1c1ccc(CC)cc1 (stereo not drawn) [FS058]	58	80	responders at 20 µM (tre^tc318 mutant embryos): 45%
CCOC(=O)C1=CCN(S(=O)(=O)c2ccccc2Br)C1c1cccc(Br)c1 (stereo not drawn) [FS031]	0		
CCOC(=O)C1=CCN(S(=O)(=O)c2ccc(F)cc2)C1c1cccc(Br)c1 (stereo not drawn) [FS115]		30	
CCOC(=O)C1=CCN(S(=O)(=O)c2cccc(F)c2)C1c1ccc(Cl)cc1 (stereo not drawn) [FS133]		78	
CCOC(=O)C1=CCN(S(=O)(=O)c2ccccc2Br)C1c1cccc(F)c1 (stereo not drawn) [FS032]	0		
CCOC(=O)C1=CCN(S(=O)(=O)c2cccc(Br)c2)C1c1ccc(F)cc1 (stereo not drawn) [FS138]		50	
CCOC(=O)C1=CCN(S(=O)(=O)c2ccccc2F)C1c1cccc(Br)c1 (stereo not drawn) [FS036]	0		
CCOC(=O)C1=CCN(S(=O)(=O)c2ccc(C)cc2)C1c1ccc(C)cc1 (stereo not drawn) [FS057]			Rescue at 10 uM (%) (tre^tc318 mutant embryos): 60%; Rescue at 15 uM (%) (tre^tc318 mutant embryos): 70%; Rescue at 20 uM (%) (tre^tc318 mutant embryos): 60%
CCOC(=O)C1=CCN(S(=O)(=O)c2ccc(Br)cc2)C1c1cccc(Br)c1 (stereo not drawn) [FS094]	11	75	responders at 20 µM (tre^tc318 mutant embryos): 25%
CCOC(=O)C1=CCN(S(=O)(=O)c2ccccc2C(=O)OC)C1c1ccc(Cl)cc1 (stereo not drawn) [FS073]			Rescue at 10 uM (%) (tre^tc318 mutant embryos): 40%
CCOC(=O)C1=CCN(S(=O)(=O)c2ccc(Br)cc2)C1c1cccc(F)c1 (stereo not drawn) [FS095]	40		
CCOC(=O)C1=CCN(S(=O)(=O)c2ccc(Cl)cc2)C1c1cccc(Br)c1 (stereo not drawn) [FS089]	0		
CCOC(=O)C1=CCN(S(=O)(=O)c2ccc(Br)cc2)C1c1ccc(F)cc1 (stereo not drawn) [FS101]	20		
CCOC(=O)C1=CCN(S(=O)(=O)c2cccc(Cl)c2)C1c1ccccc1 (stereo not drawn) [FS132]		88	

SMILES	responders at 10 µM (tre^tc318 mutant embryos) [%]	responders at 15 µM (tre^tc318 mutant embryos) [%]	other results
CCOC(=O)C1=CCN(S(=O)(=O)c2ccc(Br)cc2)C1c1ccc(Br)cc1 (stereo not drawn) [FS100]	0	33	
CCOC(=O)C1=CCN(S(=O)(=O)c2ccccc2C)C1c1ccc(Br)cc1 (stereo not drawn) [FS039]	33		
CCOC(=O)C1=CCN(S(=O)(=O)c2ccccc2C)C1c1ccc(Cl)cc1 (stereo not drawn) [FS017]	25	60	responders at 20 µM (tre^tc318 mutant embryos): 20%
CCOC(=O)C1=CCN(S(=O)(=O)c2ccccc2F)C1c1ccccc1 (stereo not drawn) [FS056]			Rescue at 10 uM (%) (tre^tc318 mutant embryos): 20%; Rescue at 15 uM (%) (tre^tc318 mutant embryos): 0%; Rescue at 20 uM (%) (tre^tc318 mutant embryos): 0%
CCOC(=O)C1=CCN(S(=O)(=O)c2ccccc2Br)C1c1cccc(C)c1 (stereo not drawn) [FS033]	0		
CCOC(=O)C1=CCN(S(=O)(=O)c2ccc(C)cc2)C1c1ccc(C#N)cc1 (stereo not drawn) [FS060]	80	60	responders at 20 µM (tre^tc318 mutant embryos): 0%
CCOC(=O)C1=CCN(S(=O)(=O)c2ccccc2Br)C1c1ccc(C)cc1 (stereo not drawn) [FS048]	0		
CCOC(=O)C1=CCN(S(=O)(=O)c2ccccc2)C1c1ccccc1 (stereo not drawn) [FS148]		56	
CCOC(=O)C1=CCN(S(=O)(=O)c2ccccc2Cl)C1c1cccc(Br)c1 (stereo not drawn) [FS026]	0		
CCOC(=O)C1=CCN(S(=O)(=O)c2ccccc2C)C1c1ccc(Cl)c(Cl)c1 (stereo not drawn) [FS019]	30	40	responders at 20 µM (tre^tc318 mutant embryos): 30%
CCOC(=O)C1=CCN(S(=O)(=O)c2ccc(Br)cc2)C1c1ccc(Cl)c(Cl)c1 (stereo not drawn) [FS092]	0	11	responders at 20 µM (tre^tc318 mutant embryos): 11%
CCOC(=O)C1=CCN(S(=O)(=O)c2ccccc2C)C1c1cccc(Cl)c1 (stereo not drawn) [FS020]	0		
CCOC(=O)C1=CCN(S(=O)(=O)c2cccc(F)c2)C1c1ccc(Br)cc1 (stereo not drawn) [FS134]		60	
CCOC(=O)C1=CCN(S(=O)(=O)c2ccccc2Br)C1c1ccccc1 (stereo not drawn) [FS055]	0		
CCOC(=O)C1=CCN(S(=O)(=O)c2ccc(C)cc2)C1c1ccc(Cl)cc1 (stereo not drawn) [FS063]			Rescue at 10 uM (%) (tre^tc318 mutant embryos): 40%
CCOC(=O)C1=CCN(S(=O)(=O)c2ccccc2C)C1c1ccc(C)cc1 (stereo not drawn) [FS018]	0		
CCOC(=O)C1=CCN(S(=O)(=O)c2ccc(Cl)cc2)C1c1cccc(Cl)c1 (stereo not drawn) [FS088]	0		
CCOC(=O)C1=CCN(S(=O)(=O)c2ccccc2F)C1c1cccc(F)c1 (stereo not drawn) [FS037]	0		
